{"source": "patent US20240350538A1", "about": "“Use of an arsenic compound for treating a short or long cytokine storm in various autoimmune/inflammatory diseases in humans or animals” (priority 2020, published 2024)", "test_system": "fresh human Peripheral Blood Mononuclear Cells (hPBMCs)", "test": "Cytokine production (IFNα, IL-6, IL-1β) by hPBMCs in basal condition and after TLR-9 stimulation (ODN2216)", "type": "cell-based", "conditions": "TLR-9-stimulated hPBMCs, 24 h; PD0325901 1 μM + ATO 2.5 μM", "data": [{"smiles": "O=C(NOC[C@H](O)CO)c1ccc(F)c(F)c1Nc1ccc(I)cc1F", "note": "[PD0325901]", "values": [{"measurement": "production of IFNα after inhibition by ATO", "value": "did not restore"}]}]}
